Experimental data reported in ChEMBL document CHEMBL1130922, “Solid phase synthesis of oligomannopeptoids that mimic the concanavalin A-binding trimannoside” (Bioorg Med Chem Lett, 1998).

Test: Dissociation constant for binding to concanavalin A (ConA) was determined by fluorescence anisotropy assay
A Kd of 9 uM l-1 was found for `CN(C)c1cccc2c(S(=O)(=O)N(CCO[C@H]3O[C@@H](CO)[C@@H](O)[C@H](O)[C@H]3O)CC(=O)N(CCO[C@H]3O[C@@H](CO)[C@@H](O)[C@H](O)[C@H]3O)CC(=O)N(CCO[C@H]3O[C@@H](CO)[C@@H](O)[C@H](O)[C@H]3O)CC(N)=O)cccc12` in this work.
A Kd of 2 uM l-1 was found for `CN(C)c1cccc2c(S(=O)(=O)N(CCO[C@H]3O[C@@H](CO)[C@@H](O[C@H]4O[C@@H](CO)[C@@H](O[C@H]5O[C@@H](CO)[C@@H](O)[C@H](O)[C@H]5O)[C@H](O)[C@H]4O)[C@H](O)[C@H]3O)CC(N)=O)cccc12` in this work.
A Kd of 18 uM l-1 was found for `CN(C)c1cccc2c(S(=O)(=O)N(CCO[C@H]3O[C@@H](CO)[C@@H](O)[C@H](O)[C@H]3O)CC(=O)N(CCO[C@H]3O[C@@H](CO)[C@@H](O)[C@H](O)[C@H]3O)CC(N)=O)cccc12` in this work.
A Kd of 122 uM l-1 was found for `CO[C@H]1[C@@H](OCCN(CC(N)=O)S(=O)(=O)c2cccc3c(N(C)C)cccc23)O[C@@H](CO)[C@@H](O)[C@@H]1O` in this work.
A Kd of 12 uM l-1 was found for `CN(C)c1cccc2c(S(=O)(=O)N(CCO[C@H]3O[C@@H](CO)[C@@H](O)[C@H](O)[C@H]3O)CC(=O)N(CCO[C@H]3O[C@@H](CO)[C@@H](O)[C@H](O)[C@H]3O)CC(=O)N(CCO[C@H]3O[C@@H](CO)[C@@H](O)[C@H](O)[C@H]3O)CC(=O)N(CCO[C@H]3O[C@@H](CO)[C@@H](O)[C@H](O)[C@H]3O)CC(=O)N(CCO[C@H]3O[C@@H](CO)[C@@H](O)[C@H](O)[C@H]3O)CC(=O)N(CCO[C@H]3O[C@@H](CO)[C@@H](O)[C@H](O)[C@H]3O)CC(N)=O)cccc12` in this work.
A Kd of 12 uM l-1 was found for `CN(C)c1cccc2c(S(=O)(=O)N(CCO[C@H]3O[C@@H](CO)[C@@H](O)[C@H](O)[C@H]3O)CC(=O)N(CCO[C@H]3O[C@@H](CO)[C@@H](O)[C@H](O)[C@H]3O)CC(=O)N(CCO[C@H]3O[C@@H](CO)[C@@H](O)[C@H](O)[C@H]3O)CC(=O)N(CCO[C@H]3O[C@@H](CO)[C@@H](O)[C@H](O)[C@H]3O)CC(N)=O)cccc12` in this work.
A Kd of 14 uM l-1 was found for `CN(C)c1cccc2c(S(=O)(=O)N(CCO[C@H]3O[C@@H](CO)[C@@H](O)[C@H](O)[C@H]3O)CC(=O)N(CCO[C@H]3O[C@@H](CO)[C@@H](O)[C@H](O)[C@H]3O)CC(=O)N(CCO[C@H]3O[C@@H](CO)[C@@H](O)[C@H](O)[C@H]3O)CC(=O)N(CCO[C@H]3O[C@@H](CO)[C@@H](O)[C@H](O)[C@H]3O)CC(=O)N(CCO[C@H]3O[C@@H](CO)[C@@H](O)[C@H](O)[C@H]3O)CC(N)=O)cccc12` in this work.
A Kd of 31 uM l-1 was found for `CN(C)c1cccc2c(S(=O)(=O)N(CCO[C@H]3O[C@@H](CO)[C@@H](O)[C@H](O)[C@H]3O)CC(N)=O)cccc12` in this work.
